Source: ChEMBL document CHEMBL5303573, “Mapping human microbiome drug metabolism by gut bacteria and their genes” (Nature, 2019)

assay: The drug is tested on Collinsella intestinalis strain: DSM13280 for biotransformation. The drug concentrations were measured before and after a 12-h incubation by liquid-chromatography-coupled mass spectrometry (LC–MS); conditions: 2 µM

Row | SMILES | Bacterial Biotransformation
1 | CC(C)[C@H]1CC[C@H](C(=O)N[C@H](Cc2ccccc2)C(=O)O)CC1 [NATEGLINIDE] | Compound NOT metabolized
2 | Cc1ccc(NC(=O)c2ccc(CN3CCN(C)CC3)cc2)cc1Nc1nccc(-c2cccnc2)n1 [IMATINIB] | Compound NOT metabolized
3 | CCN(CC)CCOC(=O)C1(C2CCCCC2)CCCCC1 [DICYCLOMINE] | Compound NOT metabolized
4 | COc1ccc2cc([C@H](C)C(=O)O)ccc2c1 [NAPROXEN] | Compound NOT metabolized

assay: The drug is tested on Parabacteroides merdae strain: ATCC43184 for biotransformation. The drug concentrations were measured before and after a 12-h incubation by liquid-chromatography-coupled mass spectrometry (LC–MS); conditions: 2 µM

Row | SMILES | Bacterial Biotransformation
5 | CC(C)[C@H]1CC[C@H](C(=O)N[C@H](Cc2ccccc2)C(=O)O)CC1 [NATEGLINIDE] | Compound NOT metabolized
6 | Cc1ccc(NC(=O)c2ccc(CN3CCN(C)CC3)cc2)cc1Nc1nccc(-c2cccnc2)n1 [IMATINIB] | Compound NOT metabolized

assay: The drug is tested on Bacteroides pectinophilus strain: ATCC43243 for biotransformation. The drug concentrations were measured before and after a 12-h incubation by liquid-chromatography-coupled mass spectrometry (LC–MS); conditions: 2 µM

Row | SMILES | Bacterial Biotransformation
7 | CC(C)[C@H]1CC[C@H](C(=O)N[C@H](Cc2ccccc2)C(=O)O)CC1 [NATEGLINIDE] | Compound NOT metabolized
8 | CCN(CC)CCOC(=O)C1(C2CCCCC2)CCCCC1 [DICYCLOMINE] | Compound NOT metabolized
9 | COc1ccc2cc([C@H](C)C(=O)O)ccc2c1 [NAPROXEN] | Compound NOT metabolized

assay: The drug is tested on Enterobacter cancerogenus strain: ATCC35316 for biotransformation. The drug concentrations were measured before and after a 12-h incubation by liquid-chromatography-coupled mass spectrometry (LC–MS); conditions: 2 µM

Row | SMILES | Bacterial Biotransformation
10 | CC(C)[C@H]1CC[C@H](C(=O)N[C@H](Cc2ccccc2)C(=O)O)CC1 [NATEGLINIDE] | Compound NOT metabolized
11 | Cc1ccc(NC(=O)c2ccc(CN3CCN(C)CC3)cc2)cc1Nc1nccc(-c2cccnc2)n1 [IMATINIB] | Compound NOT metabolized
12 | CCN(CC)CCOC(=O)C1(C2CCCCC2)CCCCC1 [DICYCLOMINE] | Compound NOT metabolized

assay: The drug is tested on Alistipes indistinctus strain: DSM22520 for biotransformation. The drug concentrations were measured before and after a 12-h incubation by liquid-chromatography-coupled mass spectrometry (LC–MS); conditions: 2 µM

Row | SMILES | Bacterial Biotransformation
13 | CC(C)[C@H]1CC[C@H](C(=O)N[C@H](Cc2ccccc2)C(=O)O)CC1 [NATEGLINIDE] | Compound NOT metabolized
14 | Cc1ccc(NC(=O)c2ccc(CN3CCN(C)CC3)cc2)cc1Nc1nccc(-c2cccnc2)n1 [IMATINIB] | Compound NOT metabolized
15 | CCN(CC)CCOC(=O)C1(C2CCCCC2)CCCCC1 [DICYCLOMINE] | Compound NOT metabolized

assay: The drug is tested on Edwardsiella tarda strain: ATCC23685 for biotransformation. The drug concentrations were measured before and after a 12-h incubation by liquid-chromatography-coupled mass spectrometry (LC–MS); conditions: 2 µM

Row | SMILES | Bacterial Biotransformation
16 | CC(C)[C@H]1CC[C@H](C(=O)N[C@H](Cc2ccccc2)C(=O)O)CC1 [NATEGLINIDE] | Compound NOT metabolized
17 | Cc1ccc(NC(=O)c2ccc(CN3CCN(C)CC3)cc2)cc1Nc1nccc(-c2cccnc2)n1 [IMATINIB] | Compound NOT metabolized
18 | COc1ccc2cc([C@H](C)C(=O)O)ccc2c1 [NAPROXEN] | Compound NOT metabolized

assay: The drug is tested on Dorea formicigenerans strain: ATCC27755 for biotransformation. The drug concentrations were measured before and after a 12-h incubation by liquid-chromatography-coupled mass spectrometry (LC–MS); conditions: 2 µM

Row | SMILES | Bacterial Biotransformation
19 | CC(C)[C@H]1CC[C@H](C(=O)N[C@H](Cc2ccccc2)C(=O)O)CC1 [NATEGLINIDE] | Compound NOT metabolized
20 | Cc1ccc(NC(=O)c2ccc(CN3CCN(C)CC3)cc2)cc1Nc1nccc(-c2cccnc2)n1 [IMATINIB] | Compound NOT metabolized
21 | CCN(CC)CCOC(=O)C1(C2CCCCC2)CCCCC1 [DICYCLOMINE] | Compound NOT metabolized
22 | COc1ccc2cc([C@H](C)C(=O)O)ccc2c1 [NAPROXEN] | Compound NOT metabolized

assay: The drug is tested on Clostridium symbiosum strain: ATCC14940 for biotransformation. The drug concentrations were measured before and after a 12-h incubation by liquid-chromatography-coupled mass spectrometry (LC–MS); conditions: 2 µM

Row | SMILES | Bacterial Biotransformation
23 | CC(C)[C@H]1CC[C@H](C(=O)N[C@H](Cc2ccccc2)C(=O)O)CC1 [NATEGLINIDE] | Compound NOT metabolized
24 | COc1ccc2cc([C@H](C)C(=O)O)ccc2c1 [NAPROXEN] | Compound NOT metabolized

assay: The drug is tested on Ruminococcus torques strain: ATCC27756 for biotransformation. The drug concentrations were measured before and after a 12-h incubation by liquid-chromatography-coupled mass spectrometry (LC–MS); format: ADME; set-up: dose 2 uM, timepoint 0 vs 12 hours; conditions: 2 µM

Row | SMILES | Bacterial Biotransformation
25 | CC(C)[C@H]1CC[C@H](C(=O)N[C@H](Cc2ccccc2)C(=O)O)CC1 [NATEGLINIDE] | Compound NOT metabolized
26 | Cc1ccc(NC(=O)c2ccc(CN3CCN(C)CC3)cc2)cc1Nc1nccc(-c2cccnc2)n1 [IMATINIB] | Compound NOT metabolized
27 | CCN(CC)CCOC(=O)C1(C2CCCCC2)CCCCC1 [DICYCLOMINE] | Compound metabolized
28 | COc1ccc2cc([C@H](C)C(=O)O)ccc2c1 [NAPROXEN] | Compound NOT metabolized

assay: The drug is tested on Bacteroides ovatus strain: ATCC8483 for biotransformation. The drug concentrations were measured before and after a 12-h incubation by liquid-chromatography-coupled mass spectrometry (LC–MS); conditions: 2 µM

Row | SMILES | Bacterial Biotransformation
29 | CC(C)[C@H]1CC[C@H](C(=O)N[C@H](Cc2ccccc2)C(=O)O)CC1 [NATEGLINIDE] | Compound NOT metabolized
30 | Cc1ccc(NC(=O)c2ccc(CN3CCN(C)CC3)cc2)cc1Nc1nccc(-c2cccnc2)n1 [IMATINIB] | Compound NOT metabolized
31 | CCN(CC)CCOC(=O)C1(C2CCCCC2)CCCCC1 [DICYCLOMINE] | Compound NOT metabolized

conditions: bacteroides stercoris, 12 h, 2 µM

Row | SMILES | Bacterial Biotransformation
32 | CC(C)[C@H]1CC[C@H](C(=O)N[C@H](Cc2ccccc2)C(=O)O)CC1 [NATEGLINIDE] | Compound NOT metabolized
33 | Cc1ccc(NC(=O)c2ccc(CN3CCN(C)CC3)cc2)cc1Nc1nccc(-c2cccnc2)n1 [IMATINIB] | Compound NOT metabolized

assay: The drug is tested on Bacteroides coprophilus strain: DSM18228 for biotransformation. The drug concentrations were measured before and after a 12-h incubation by liquid-chromatography-coupled mass spectrometry (LC–MS); conditions: 2 µM

Row | SMILES | Bacterial Biotransformation
34 | CC(C)[C@H]1CC[C@H](C(=O)N[C@H](Cc2ccccc2)C(=O)O)CC1 [NATEGLINIDE] | Compound NOT metabolized
35 | Cc1ccc(NC(=O)c2ccc(CN3CCN(C)CC3)cc2)cc1Nc1nccc(-c2cccnc2)n1 [IMATINIB] | Compound NOT metabolized
36 | CCN(CC)CCOC(=O)C1(C2CCCCC2)CCCCC1 [DICYCLOMINE] | Compound NOT metabolized
37 | COc1ccc2cc([C@H](C)C(=O)O)ccc2c1 [NAPROXEN] | Compound NOT metabolized

assay: The drug is tested on Coprococcus comes strain: ATCC27758 for biotransformation. The drug concentrations were measured before and after a 12-h incubation by liquid-chromatography-coupled mass spectrometry (LC–MS); format: ADME; set-up: dose 2 uM, timepoint 0 vs 12 hours; conditions: 2 µM

Row | SMILES | Bacterial Biotransformation
38 | CC(C)[C@H]1CC[C@H](C(=O)N[C@H](Cc2ccccc2)C(=O)O)CC1 [NATEGLINIDE] | Compound NOT metabolized
39 | Cc1ccc(NC(=O)c2ccc(CN3CCN(C)CC3)cc2)cc1Nc1nccc(-c2cccnc2)n1 [IMATINIB] | Compound NOT metabolized
40 | CCN(CC)CCOC(=O)C1(C2CCCCC2)CCCCC1 [DICYCLOMINE] | Compound NOT metabolized
41 | COc1ccc2cc([C@H](C)C(=O)O)ccc2c1 [NAPROXEN] | Compound NOT metabolized

assay: The drug is tested on Blautia luti strain: DSM14534 for biotransformation. The drug concentrations were measured before and after a 12-h incubation by liquid-chromatography-coupled mass spectrometry (LC–MS); format: ADME; set-up: dose 2 uM, timepoint 0 vs 12 hours; conditions: 2 µM

Row | SMILES | Bacterial Biotransformation
42 | Cc1ccc(NC(=O)c2ccc(CN3CCN(C)CC3)cc2)cc1Nc1nccc(-c2cccnc2)n1 [IMATINIB] | Compound NOT metabolized
43 | CCN(CC)CCOC(=O)C1(C2CCCCC2)CCCCC1 [DICYCLOMINE] | Compound NOT metabolized
44 | COc1ccc2cc([C@H](C)C(=O)O)ccc2c1 [NAPROXEN] | Compound NOT metabolized

assay: The drug is tested on Bacteroides fragilis strain: ATCC43859 for biotransformation. The drug concentrations were measured before and after a 12-h incubation by liquid-chromatography-coupled mass spectrometry (LC–MS); conditions: 2 µM

Row | SMILES | Bacterial Biotransformation
45 | CC(C)[C@H]1CC[C@H](C(=O)N[C@H](Cc2ccccc2)C(=O)O)CC1 [NATEGLINIDE] | Compound metabolized
46 | Cc1ccc(NC(=O)c2ccc(CN3CCN(C)CC3)cc2)cc1Nc1nccc(-c2cccnc2)n1 [IMATINIB] | Compound NOT metabolized
47 | CCN(CC)CCOC(=O)C1(C2CCCCC2)CCCCC1 [DICYCLOMINE] | Compound NOT metabolized
48 | COc1ccc2cc([C@H](C)C(=O)O)ccc2c1 [NAPROXEN] | Compound metabolized

assay: The drug is tested on Bacteroides fragilis strain: HMW610 for biotransformation. The drug concentrations were measured before and after a 12-h incubation by liquid-chromatography-coupled mass spectrometry (LC–MS); conditions: 2 µM

Row | SMILES | Bacterial Biotransformation
49 | CC(C)[C@H]1CC[C@H](C(=O)N[C@H](Cc2ccccc2)C(=O)O)CC1 [NATEGLINIDE] | Compound metabolized
50 | Cc1ccc(NC(=O)c2ccc(CN3CCN(C)CC3)cc2)cc1Nc1nccc(-c2cccnc2)n1 [IMATINIB] | Compound NOT metabolized
51 | CCN(CC)CCOC(=O)C1(C2CCCCC2)CCCCC1 [DICYCLOMINE] | Compound NOT metabolized
52 | COc1ccc2cc([C@H](C)C(=O)O)ccc2c1 [NAPROXEN] | Compound metabolized

conditions: enterocloster bolteae, 12 h, 2 µM

Row | SMILES | Bacterial Biotransformation
53 | CC(C)[C@H]1CC[C@H](C(=O)N[C@H](Cc2ccccc2)C(=O)O)CC1 [NATEGLINIDE] | Compound NOT metabolized
54 | Cc1ccc(NC(=O)c2ccc(CN3CCN(C)CC3)cc2)cc1Nc1nccc(-c2cccnc2)n1 [IMATINIB] | Compound NOT metabolized
55 | CCN(CC)CCOC(=O)C1(C2CCCCC2)CCCCC1 [DICYCLOMINE] | Compound NOT metabolized
56 | COc1ccc2cc([C@H](C)C(=O)O)ccc2c1 [NAPROXEN] | Compound NOT metabolized

assay: The drug is tested on Eubacterium rectale strain: ATCC33656 for biotransformation. The drug concentrations were measured before and after a 12-h incubation by liquid-chromatography-coupled mass spectrometry (LC–MS); conditions: agathobacter rectalis, 2 µM

Row | SMILES | Bacterial Biotransformation
57 | CC(C)[C@H]1CC[C@H](C(=O)N[C@H](Cc2ccccc2)C(=O)O)CC1 [NATEGLINIDE] | Compound NOT metabolized
58 | COc1ccc2cc([C@H](C)C(=O)O)ccc2c1 [NAPROXEN] | Compound NOT metabolized
